Laboratory results published in PMC5672800 (Journal of medicinal chemistry, 2017).

Columns and labels:
[1] = tested on: human MC3R; conditions: cited from earlier work
[2] = molecular target: T1, mMC3R (Mus musculus, UniProt P33033); test: 125I-NDP-MSH competitive binding assay at mMC3R; conditions: vs Ac-His-DPhe-Arg-Trp-NH2; negative = more potent than control
[3] = molecular target: T1, mMC3R; conditions: read-out: mMC3R EC50; cited from earlier work
[4] = molecular target: mMC4R (Mus musculus, UniProt P56450); conditions: read-out: mMC4R EC50; cited from earlier work
mMC4R, sequence (P56450 whole entry): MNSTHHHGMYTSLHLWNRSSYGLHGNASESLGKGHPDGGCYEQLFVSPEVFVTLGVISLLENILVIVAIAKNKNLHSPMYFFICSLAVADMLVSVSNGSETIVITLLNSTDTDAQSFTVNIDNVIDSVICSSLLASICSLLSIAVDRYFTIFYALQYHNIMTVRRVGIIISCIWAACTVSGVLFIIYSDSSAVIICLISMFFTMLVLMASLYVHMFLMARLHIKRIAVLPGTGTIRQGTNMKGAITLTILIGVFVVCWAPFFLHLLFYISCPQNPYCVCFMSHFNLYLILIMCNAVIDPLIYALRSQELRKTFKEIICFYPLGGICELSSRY

[5] = tested on: human MC4R; conditions: cited from earlier work
[6] = tested on: hMC4R; conditions: cited from earlier work

T1 sequence (P33033 whole entry): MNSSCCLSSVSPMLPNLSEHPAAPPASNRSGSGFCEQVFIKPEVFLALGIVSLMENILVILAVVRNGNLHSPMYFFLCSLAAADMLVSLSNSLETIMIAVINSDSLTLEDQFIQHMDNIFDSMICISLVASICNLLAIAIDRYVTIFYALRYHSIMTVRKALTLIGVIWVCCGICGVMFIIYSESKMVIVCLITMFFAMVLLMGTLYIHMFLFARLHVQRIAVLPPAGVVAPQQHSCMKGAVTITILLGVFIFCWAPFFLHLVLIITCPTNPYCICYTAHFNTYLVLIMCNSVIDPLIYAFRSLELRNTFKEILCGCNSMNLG

CC(=O)N[C@@H](Cc1c[nH]cn1)C(=O)N[C@H](Cc1ccccc1)C(=O)N[C@@H](CCCNC(=N)N)C(=O)N[C@@H](Cc1c[nH]c2ccccc12)C(N)=O [Ac-His-DPhe-Arg-Trp-NH2]
IC50 ([1]; read-out: human MC3R IC50, previously reported): > 10000 nM

CC(=O)N[C@@H](CCCNC(=N)N)C(=O)N[C@@H](CCCNC(=N)N)C(=O)N[C@H](Cc1ccc(I)cc1)C(=O)N[C@H](Cc1ccc2ccccc2c1)C(N)=O [Compound 41, Ac-Arg-Arg-(pI)DPhe-DNal(2′)-NH2]
mMC3R (IC50) Fold Diff. [2]: -115

Ac-Ser-Tyr-Ser-Nle-Glu-His-Arg-Phe-Phe-Gly-Lys-Pro-Val-NH2 (SYSXEHRFFGKPV; HELM PEPTIDE1{[ac].S.Y.S.[Nle].E.H.R.F.F.G.K.P.V.[am]}$$$$V2.0; SMILES CCCC[C@H](NC(=O)[C@H](CO)NC(=O)[C@H](Cc1ccc(O)cc1)NC(=O)[C@H](CO)NC(C)=O)C(=O)N[C@@H](CCC(=O)O)C(=O)N[C@@H](Cc1c[nH]cn1)C(=O)N[C@@H](CCCNC(=N)N)C(=O)N[C@@H](Cc1ccccc1)C(=O)N[C@@H](Cc1ccccc1)C(=O)NCC(=O)N[C@@H](CCCCN)C(=O)N1CCC[C@H]1C(=O)N[C@H](C(N)=O)C(C)C)
EC50 [3]: 480 nM | EC50 [4]: 930 nM

Tic-(pI)DPhe-Arg-Trp-NH2
binding to human MC3R [1]: 75 nM | binding to human MC4R [5]: 0.30 nM | hMC4R agonist activation with respect to maximal response [6]: > 35% | hMC4R antagonist pA2 [6]: 9.10 | Ki ([6]; read-out: hMC4R antagonist Ki): 0.79 nM
